Drawing on the OligoGym collection, this text covers target mRNA inhibition for 29 sequences.

“And” between values parts separate entries of the source, which are not always exact repeats. Identical values can stand only once. After the bases stand the sugars from the 5' end (letter, count) and the backbone: PS all phosphorothioate, else s phosphorothioate and o phosphodiester by linkage. Methylation of C is not given here. e = 2'-O-(2-methoxyethyl) (MOE); d = 2'-deoxy (DNA)

The series addresses DGAT2. Particulars: ASO.

In the case of “TGGCTCAGTTCACCTCCAGG (sugars e5 d10 e5, PS)”, the target mRNA inhibition runs as follows: (HepG2, 2.5 µM) 53%; (HepG2, 10 µM) 86%.

With “TGGCTTCCTCAGGGCCCACC (sugars e5 d10 e5, PS)”, the target mRNA inhibition runs as follows: (HepG2, 2.5 µM) 79%; (HepG2, 10 µM) 87%.

As for “TGGGAACTTCTTGCTCACTT (sugars e5 d10 e5, PS)”, the target mRNA inhibition (HepG2, 0.12 µM) was determined as 43%. “TGGTCAGCAGGTTGTGTGTC (sugars e2 d13 e5, PS)” gave a target mRNA inhibition (HepG2, 0.12 µM) of 57%. With “TGGTCAGCAGGTTGTGTGTC (sugars e5 d10 e5, PS)”, the target mRNA inhibition was 55% and 43% (HepG2, 0.12 µM); 19% (HepG2, 2.5 µM); 72% (HepG2, 10 µM); 83% (HepG2, 20 µM). Turning to “TGTGTGACCTTGGGCAAGTT (sugars e5 d10 e5, PS)”, the target mRNA inhibition is 61% and 57% (HepG2, 2.5 µM); 78% and 88% (HepG2, 10 µM).

“TGTGTGTCTTCACCAGCTGG (sugars e5 d10 e5, PS)”: the target mRNA inhibition came out at 55% (HepG2, 0.12 µM); 28% (HepG2, 2.5 µM); 73% (HepG2, 10 µM); 94% (HepG2, 20 µM).

As to “TGTTATCCGAGTTGAATTCT (sugars e5 d10 e5, PS)”, under “HepG2, 0.12 µM”, the target mRNA inhibition turned out to be 45%. The sequence “TTAAATAACCCACAGACACC (sugars e5 d10 e5, PS)” registered a target mRNA inhibition (HepG2, 0.12 µM) of 0%. The sequence “TTAAGCTTTGTGACCTTGGG (sugars e5 d10 e5, PS)” came in with a target mRNA inhibition (HepG2, 0.12 µM) of 67%.

The sequence “TTACTCCACCTAGCTCATGG (sugars e5 d10 e5, PS)” came in with a target mRNA inhibition (HepG2, 0.12 µM) of 6%. Same read-out and setting: to “TTCAAAAAGTAGCTACTGCA (sugars e5 d10 e5, PS)” belongs 47%; to “TTCACCAGCTGGATGGGAAA (sugars e5 d10 e5, PS)”, 26%; to “TTCACCTCCAGGACCTCAGT (sugars e5 d10 e5, PS)”, 46%. On to “TTCATCTTTCCAGATCCGGA (sugars e5 d10 e5, PS)”, for which the target mRNA inhibition worked out at 71% (HepG2, 2.5 µM) and 92% (HepG2, 10 µM). As for “TTCCTCATCTATACAGTGGG (sugars e5 d10 e5, PS)”, the target mRNA inhibition runs as follows: (HepG2, 2.5 µM) 57% and 72% and 73%; (HepG2, 10 µM) 89% and 82% and 92%.

In turn, “TTCCTGGTGGTCAGCAGGTT (sugars e5 d10 e5, PS)” had a target mRNA inhibition (HepG2, 0.12 µM) of 61%. Where the note is “HepG2, 0.12 µM”, “TTCGGACCCACTGTGACCTC (sugars e2 d13 e5, PS)” registered a target mRNA inhibition of 71%. Regarding “TTGAAAGCAAATAGTCTATG (sugars e5 d10 e5, PS)”, the target mRNA inhibition (HepG2, 0.12 µM) turned out to be 42%. For “TTGAAATCCAATGCACCTTG (sugars e5 d10 e5, PS)”, the target mRNA inhibition (HepG2, 2.5 µM) was determined as 62% and the target mRNA inhibition (HepG2, 10 µM) came to 93%. Take “TTGCAATGTTGCCATCATAC (sugars e5 d10 e5, PS)”: under “HepG2, 10 µM”, the target mRNA inhibition is 96% and 94%. Consider “TTGCCACTCCCATTCTTTGA (sugars e5 d10 e5, PS)”, for which, under “HepG2, 0.12 µM”, the target mRNA inhibition is 39% and 57%.

“TTGCTTAAACAGATAAGCAC (sugars e5 d10 e5, PS)” displayed a target mRNA inhibition (HepG2, 0.12 µM) of 17%. Where the note is “HepG2, 0.12 µM”, “TTGGAGTAGGGCACCAGCCC (sugars e5 d10 e5, PS)” showed a target mRNA inhibition of 16%. For “TTGTGTGTCTTCACCAGCTG (sugars e2 d13 e5, PS)”, the target mRNA inhibition (HepG2, 0.12 µM) came out at 71%.

For “TTTCCATTTTTTACCCAACC (sugars e5 d10 e5, PS)”, the target mRNA inhibition reads like this: (HepG2, 2.5 µM) 54%; (HepG2, 10 µM) 90%.

Take “TTTCCTTCTTAAAAAAGACC (sugars e5 d10 e5, PS)”: the target mRNA inhibition (HepG2, 0.12 µM) is 9%. For the sequence “TTTCCTTTGAAATCCAATGC (sugars e5 d10 e5, PS)”, the target mRNA inhibition by setting is: (HepG2, 2.5 µM) 69%; (HepG2, 10 µM) 90%. “TTTGGATAGTCGATTTACCA (sugars e5 d10 e5, PS)”: under “HepG2, 0.12 µM”, the target mRNA inhibition turned out to be 41%.
